Assay results published in patent US20240207336A1, “PURIFIED PS[…] […] ACIDIFIED ACETONE” (PSILO SCIENTIFIC LTD, priority 2021, published 2024).

Assay: oxidation (decay) of psilocin over time, applicant's own data

Structure (SMILES): CN(C)CCc1c[nH]c2cccc(O)c12 [psilocin]
- decay of psilocin (oxidation) (after 5 hours, moist and/or high light environment): ~25%
- decay of psilocin (oxidation) (at 20 hours when shielded from light): 40-60%
- decay of psilocin (oxidation) (within 30 minutes, moist and/or high light environment): about 10%
